{
  "source": "patent US8080632B2",
  "about": "“Peptide mimics of melanocyte stimulating hormone” (The Feinstein Institute for Medical Research, priority 2005, dated 2011)",
  "key": {"[1]": {"system": "Macrophage-like RAW cells", "experiment": "Structure function: inhibition of LPS (4 ng/ml)-stimulated TNF release", "assay_type": "cell-based, murine", "settings": "full range of the dose-response curve"}, "RAW cells": {"system": "RAW cells", "experiment": "Cyclic-AMP production in RAW cells", "assay_type": "cell-based, murine", "settings": "FIG. 8"}},
  "data": [
    {"substance": "EFG-2: C-terminus of human mitochondrial EF-G2: TLTSGSATFALELSTYQAMNPQDQNTLLNRRSGLT (listed as Homo sapiens)", "values": [
      {"measurement": "activity in suppressing TNF release relative to MECO-1", "setting": "[1]", "result": "as active as MECO-1"}
    ]},
    {"substance": "adrenocorticotropic hormone (SYSMEHFRWGKPVGKKRRPVKVYPNGAEDESAEAFPLEF; mammalian melanocortin ACTH (1-39)) [obtained from Bachem Bioscience]", "values": [
      {"measurement": "stimulation of cAMP production", "setting": "RAW cells", "result": "dose-dependent fashion"}
    ]}
  ]
}
